Results as given in patent US20030225007A1, “Sulfonamide derivatives of 3-substituted imidazol[1,2-d]-1,2,4-thiadiazoles and 3-substituted-[1,2,4] thiadiazolo[4,5-a] benzimidazole as inhibitors of fibrin cross-linking and transglutaminases” (Apotex Inc., priority 2002, published 2003).
pIC50: −log10 of the molar value. Where two headings read alike, the source gives them in different places.

Key:
[1] = target: T1, Factor XIIIa (activated FXIII) (Homo sapiens, UniProt P00488); experiment: Inactivation of purified Factor XIIIa (monodansylcadaverine incorporation into dimethylcasein, fluorescence); format: biochemical; details: for kinact/KI: purified Factor XIIIa, method of Kitz and Wilson, read-out: Second order rate constant for inactivation; for IC50: purified activated FXIII, 50% enzyme inactivation after 5-min incubation with inhibitor at 37° C. in the absence of substrate, read-out: FXIIIa (IC50 in μM); for pIC50: values without asterisk, purified FXIIIa, 5-min incubation, read-out: FXIIIa IC50 determined by method in Example 16
T1 construct: purchased Enzyme Research Laboratories, Ltd
T1 sequence (P00488 39-732 limits assumed): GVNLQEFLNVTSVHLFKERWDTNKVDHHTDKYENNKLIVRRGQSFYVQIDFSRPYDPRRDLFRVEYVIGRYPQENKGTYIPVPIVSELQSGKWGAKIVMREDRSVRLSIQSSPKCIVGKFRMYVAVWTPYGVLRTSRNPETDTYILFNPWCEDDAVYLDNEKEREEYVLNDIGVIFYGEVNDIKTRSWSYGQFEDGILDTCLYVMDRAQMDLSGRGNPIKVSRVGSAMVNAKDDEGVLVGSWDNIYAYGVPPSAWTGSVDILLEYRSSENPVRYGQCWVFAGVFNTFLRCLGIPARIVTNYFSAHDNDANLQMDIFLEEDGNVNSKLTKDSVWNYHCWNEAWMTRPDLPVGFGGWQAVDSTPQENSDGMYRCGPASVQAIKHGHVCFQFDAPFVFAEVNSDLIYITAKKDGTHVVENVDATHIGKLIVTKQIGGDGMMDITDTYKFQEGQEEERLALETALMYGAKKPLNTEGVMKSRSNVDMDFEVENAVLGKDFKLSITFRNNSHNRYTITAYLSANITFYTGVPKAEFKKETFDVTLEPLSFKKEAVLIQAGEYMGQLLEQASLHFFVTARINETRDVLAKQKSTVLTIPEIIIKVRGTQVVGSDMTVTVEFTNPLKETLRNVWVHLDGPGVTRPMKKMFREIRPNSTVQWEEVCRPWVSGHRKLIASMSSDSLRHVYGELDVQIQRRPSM
Method in brief: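 Read-out: fluorescence rise (360/500 nm) as 20 μM monodansylcadaverine is built into dimethylcasein at pH 8.0, 10 mM CaCl2. This measures activity left after a 5-min, 37° C., substrate-free exposure of thrombin-activated FXIII to inhibitor. IC50 means 50% inactivation under those conditions; rate constants by Kitz-Wilson method.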

[2] = tested on: platelet-depleted and platelet-rich human plasma clots; experiment: Acceleration of fibrinolysis of platelet-depleted and platelet-rich plasma clots (t-PA lysis); format: biochemical; details: platelet-depleted and platelet-rich human plasma clots made with varying inhibitor concentrations; lysis with 300 IU/mL t-PA; FIG. 3
Procedure: Platelet rich (platelet count: 150,000-300,000 mm^−3) or platelet-depleted citrated human plasma was prepared from at least three donors. Plasma (0.3 mL), containing 2-4 μg/mL of ^125I-labeled fibrinogen (specific activity approx. 200 μCi/mg, at least 85% clotability, Amersham Pharmacia Biotech UK Ltd.), was clotted by the addition of CaCl2 (6.4 μL) to a final concentration of 50 mM and thrombin (6.2 μL) to a final concentration of 5 units/mL. Solutions of Factor XIIIa inactivators in DMSO were added just prior to the addition of thrombin and CaCl2. In some cases the inactivator was dissolved and added to plasma in water. To these samples, DMSO (3.2 μL) was mixed in to make 1% final concentration. Conversely, water (3.2 μL) was added to clots to which inactivator was added in DMSO. […] The progress of the fibrinolysis was followed by quantitating the amount of radioactivity in a 20 μL aliquot of the lysis buffer at various lysis times. To measure the total amount of radioactivity in the clots taken for lysis, 0.6 mg bovine trypsin was added to each sample at the end of the lysis and the solutions were incubated for 4 hours at 37° C., or until the digestion was complete. An aliquot (20 μL) of the resulting solution was counted in the liquid scintillation counter. Per cent of fibrinolysis was then calculated with a correction for sub-sampling. […]

| SMILES | kinact/KI [1] [M⁻¹ s⁻¹] | IC50 [1] [µM] | pIC50 [1] | fibrinolysis of plasma clots [2] |
| --- | --- | --- | --- | --- |
| O=S(=O)(NCCCCCCNc1nsc2nccn12)c1cccc2ccccc12 [1-naphthyl, N-[6-(imidazo[1,2-d][1,2,4]thiadiazol-3-ylamino)hexyl]naphthalene-1-sulfonamide] | 3300 | 0.52 | 6.28 | – |
| O=S(=O)(Cc1ccccc1)NCCCCCCNc1nsc2nccn12 [2 / CH2Ph, N-[6-(imidazo[1,2-d][1,2,4]thiadiazol-3-ylamino)hexyl]-1-phenylmethanesulfonamide] | – | – | 5.11 | – |
| O=S(=O)(NCCCCCCNc1nsc2nccn12)c1ccc(F)cc1F [2,4-diF-Ph, 2,4-difluoro-N-[6-(imidazo[1,2-d][1,2,4]thiadiazol-3-ylamino)hexyl]benzenesulfonamide] | – | 1.4 | 5.85 | – |
| O=S(=O)(NCCCCCCNc1nsc2nccn12)c1ccc(OC(F)(F)F)cc1 [4-OCF3-Ph, N-[6-(imidazo[1,2-d][1,2,4]thiadiazol-3-ylamino)hexyl]-4-trifluoromethoxybenzenesulfonamide] | – | – | 5.80 | – |
| O=C(O)CN(CCCCCCNS(=O)(=O)c1ccccc1[N+](=O)[O-])c1nsc2nccn12 [H / CH2CO2H / 2-NO2-Ph, N-imidazo[1,2-d][1,2,4]thiadiazol-3-yl-N-(6-{[(2-nitrophenyl)sulfonyl]amino}hexyl)glycine] | 4500 | 0.62 | 6.21 | acceleration of fibrinolysis |
